Measurements: patent US11401306B2, “HPV16 non HLA-restricted t-cell vaccines, compositions and methods of use thereof” (priority 2016, dated 2022)
No end group written: not given here.

Legend:
[1] = tested on: HPV-specific T-cell response (splenocytes); experiment: IFN-g ELISPOT on splenocytes of vaccinated humanized HLA-A2 transgenic mice; format: in vivo; details: for Immune Response, Method: ELISPOT: HLA-A2 humanized transgenic mice, IFN-gamma ELISPOT
Description: (§1) Sequence selection was accomplished herein using both tumor regression studies in C57/B6 mice, and interferon-gamma ELISPOT studies in HLA-A2 humanized transgenic mice. […] In the HLA-A2 mouse model ELISPOT study, at least 20 spots per million splenocytes was regarded to be a positive response.
This example highlights the approach to evaluating T-cell responses using ELISPOT studies in humanized HLA-A2 transgenic mice. In these studies, the vaccine contained the selected peptide at a concentration of 0.1-3.0 mg/mL and cationic liposomes when used, at a concentration of 0.2-3.0 mg/mL. Humanized HLA-A2 transgenic mice having components of the human immune system capable of recognizing human antigens were vaccinated on day 0 and day 7 with 100 uL of the vaccine. On day 14 the mice were sacrificed and HPV-specific immune response evaluated by interferon-gamma ELISPOT using standard approaches with the splecocytes from the mice (4-8 per group). The splenocytes were stimulated with the specified CD8+ T-cell epitope peptides or the long multi-epitope peptides specified in Table 2. The number of IFN-g spots per million cells is listed for the specified examples. […] The ability of the humanized transgenic mice to successfully generate a T-cell immune response (>20 spots) when stimulated with each of the long multi-epitope peptides as well as short single epitope peptides confirms that the selected peptides are effectively processed and presented to T-cells. In these studies, un-stimulated splenocytes and splenocytes stimulated with irrelevant peptides were both used together as negative controls in every assay. For the positive control in the assay ConA was used.
The present study was performed to evaluate the effect of chemical modification of select peptides on immunogenicity and their ability to be processed, presented and to prime human CD8+ HPV-specific T-cell responses. Peptides corresponding to SEQ ID NO: 23 and 25 contain cysteines which upon oxidation lead to the formation of dimers and other multimers. Two vaccine formulations were prepared containing peptides corresponding to SEQ ID NO: 23 and 25.
In Formulation A: Both peptides were monomeric with high purity confirmed by HPLC analysis. The vaccine contained 1.5-1.6 mg/mL of each peptide.
In Formulation B: Significant oxidation and multimer formation of both peptides was confirmed by HPLC analysis.
Both formulations were mixed 1:1 with 5.8 mg/mL of R-DOTAP prior to vaccination.
The immunogenicity of the peptides was compared as described in the above examples in 10 HLA-A2 mice per formulation by evaluating the ability to induce CD8+ T-cells. ELISPOT studies were performed as described above.

TC-1 tumor = TC-1 tumor regression screening of peptides in C57/B6 mice; format: in vivo; design: key: Positive: a positive T-cell response was a T-cell response that resulted in regression of the tumor; details: TC-1 tumors in C57/B6 mice, vaccinated day 7, peptide alone or with cationic lipid
Description: as §1
This example illustrates the evaluation or screening of several HPV16 E7 peptides in the TC-1 mouse tumor regression model for their effective processing and presentation of the key epitopes leading to HPV-specific T-cell induction and subsequent tumor regression.
In the tumor regression screening studies mice were implanted with 100,000 TC-1 cells on day 0. On day 7, once the tumors were well established the mice were vaccinated with the specific peptide sequences, either formulated alone or in combination with cationic lipids such as DOTMA, DOEPC or R-DOTAP to facilitate up-take and presentation. In these studies, the vaccine contained the selected peptide at a concentration of 0.1-3.0 mg/mL and cationic liposomes at a concentration of 0.2-3.0 mg/mL. In the cases where the peptide sequences were lipidated by attaching a palmitoyl chain, the peptides were simply mixed with the cationic liposomes prior to vaccination. In the case of the non-lipidated peptides, the liposomes were made and peptides encapsulated by traditional thin film liposome preparation methods (F Szoka, and D Papahadjopoulos, Comparative Properties and Methods of Preparation of Lipid Vesicles (Liposomes), Annual Review of Biophysics and Bioengineering, Vol. 9:467-508, 1980). Other methods well known to those skilled in the art may also have been used.
A sample tumor regression plot showing results for peptides corresponding to SEQ ID NO: 1 (blank square), SEQ ID NOS: 7, 8, 31 32 and 31 (solid black circle), SEQ ID NO: 7 (blank circle), and SEQ ID NO: 8 (solid black triangle) is shown in FIG. 3.

[2] = splenocytes stimulated with TIHDIILECV (SEQ ID NO: 21)
[3] = splenocytes stimulated with YMLDLQPETT (SEQ ID NO: 14)
[4] = splenocytes stimulated with LLMGTLGIV (SEQ ID NO: 15)
[5] = splenocytes stimulated with TLGIVCPIC (SEQ ID NO: 22)

Molecule | Immune Response, Method: ELISPOT [1] | Immune Response, Method: tumor regression (TC-1 tumor) | further results
TIHDIILECV [SEQ ID NO: 21, printed as E7 29-38 peptide] | Positive, ELISPOT (at least 20 spots per million splenocytes was regarded to be a positive response) |  | 
ELQTTIHDIILECVYCKQQLL [SEQ ID NO: 11, HPV16 E6 25-45 peptide] | Positive, ELISPOT (at least 20 spots per million splenocytes was regarded to be a positive response) |  | ELISPOT result Av spots/10^6 cells [1, 2]: 262 spots/10^6 cells
PalmKSS RAHYNIVTF [SEQ ID NO: 3] |  | Positive, tumor regression | 
CDSTLRLCVQ STHVDIRT (CDSTLRLCVQSTHVDIRT) [SEQ ID NO: 32, E7 61-78 peptide] |  | Positive, tumor | 
CSCC[C@H](NC(=O)[C@@H](N)Cc1ccc(O)cc1)C(=O)N[C@@H](CC(C)C)C(=O)N[C@@H](CC(=O)O)C(=O)N[C@@H](CC(C)C)C(=O)N[C@@H](CCC(N)=O)C(=O)N1CCC[C@H]1C(=O)N[C@@H](CCC(=O)O)C(=O)N[C@H](C(=O)N[C@H](C(=O)O)[C@@H](C)O)[C@@H](C)O [SEQ ID NO: 14] | Positive, ELISPOT (at least 20 spots per million splenocytes was regarded to be a positive response) |  | ELISPOT result Av spots/10^6 cells [1, 3]: 580 spots/10^6 cells
MHGDTPTLHEYMLDLQPETT [SEQ ID NO: 9] | Positive, EISPOT (at least 20 spots per million splenocytes was regarded to be a positive response) |  | ELISPOT result Av spots/10^6 cells [1, 3]: 235 spots/10^6 cells
KSS RAHYNIVTF (KSSRAHYNIVTF) [SEQ ID NO: 4, HPV16 E7 49-57 peptide with KSS] |  | Positive, tumor regression | 
CC[C@H](C)[C@H](NC(=O)CNC(=O)[C@H](CC(C)C)NC(=O)[C@@H](NC(=O)CNC(=O)[C@H](CCSC)NC(=O)[C@H](CC(C)C)NC(=O)[C@@H](N)CC(C)C)[C@@H](C)O)C(=O)N[C@H](C(=O)O)C(C)C [SEQ ID NO: 15] | Positive, ELISPOT (at least 20 spots per million splenocytes was regarded to be a positive response) |  | 
KSS GQAEPDRAHYNIVTF (KSSGQAEPDRAHYNIVTF) [SEQ ID NO: 6, HPV16 E7 43-57 peptide with KSS] |  | Negative, tumor regression | 
KFYSKISEYRHCYYSLYGTTL [SEQ ID NO: 12, printed as E7 75-95 peptide] | Negative, ELISPOT |  | ELISPOT result Av spots/10^6 cells ([1]; splenocytes stimulated with KISEYRHCY (SEQ ID NO: 30)): 15 spots/10^6 cells
DRAHYNIVTF [SEQ ID NO: 2, HPV16 E7 48-57 peptide] |  | Negative, tumor regression | 
PalmKSS LLMGTLGIVCPICSQKP [SEQ ID NO: 25] | Positive, ELISPOT (at least 20 spots per million splenocytes was regarded to be a positive response) |  | ELISPOT result Av spots/10^6 cells ([1]; Formulation A (monomeric peptides SEQ ID NO: 23 and 25, with R-DOTAP), stimulated with LLMGTLGIV (SEQ ID NO: 15)): 52 spots/10^6 cells; ELISPOT result Av spots/10^6 cells ([1]; Formulation B (oxidized, multimer peptides SEQ ID NO: 23 and 25, with R-DOTAP), stimulated with LLMGTLGIV (SEQ ID NO: 15)): 48 spots/10^6 cells; ELISPOT result Av spots/10^6 cells [1, 4]: 5 spots/10^6 cells; ELISPOT result Av spots/10^6 cells ([1]; splenocytes stimulated with LLMGTLGIVCPICSQKP (SEQ ID NO: 10)): 92 spots/10^6 cells; ELISPOT result Av spots/10^6 cells [1, 5]: 31 spots/10^6 cells
PalmKSS LLMGTLGIV [SEQ ID NO: 28] | Positive, ELISPOT (at least 20 spots per million splenocytes was regarded to be a positive response) |  | ELISPOT result Av spots/10^6 cells [1, 4]: 96 spots/10^6 cells
PalmKSS YMLDLQPETT [SEQ ID NO: 27] | Positive, ELISPOT (at least 20 spots per million splenocytes was regarded to be a positive response) |  | ELISPOT result Av spots/10^6 cells [1, 3]: 280 spots/10^6 cells
PAGQAEPDRAHYNIVTFC [SEQ ID NO: 7, HPV16 E7 41-58 peptide] |  | Positive, tumor regression | 
PalmKSS ELQTTIHDIILECVYCKQQLL [SEQ ID NO: 23] | Positive, ELISPOT (at least 20 spots per million splenocytes was regarded to be a positive response) |  | ELISPOT result Av spots/10^6 cells ([1]; Formulation A (monomeric peptides SEQ ID NO: 23 and 25, with R-DOTAP), stimulated with TIHDIILECV (SEQ ID NO: 21)): 314 spots/10^6 cells; ELISPOT result Av spots/10^6 cells ([1]; Formulation B (oxidized, multimer peptides SEQ ID NO: 23 and 25, with R-DOTAP), stimulated with TIHDIILECV (SEQ ID NO: 21)): 158 spots/10^6 cells; ELISPOT result Av spots/10^6 cells ([1]; splenocytes stimulated with ELQTTIHDIILECVYCKQQLL (SEQID NO: 13)): 8 spots/10^6 cells; ELISPOT result Av spots/10^6 cells [1, 2]: 612 spots/10^6 cells
CC[C@H](C)[C@H](NC(=O)CNC(=O)[C@H](CC(C)C)NC(=O)[C@@H](N)[C@@H](C)O)C(=O)N[C@H](C(=O)N[C@@H](CS)C(=O)N1CCC[C@H]1C(=O)N[C@H](C(=O)N[C@@H](CS)C(=O)O)[C@@H](C)CC)C(C)C [SEQ ID NO: 22] | Positive, ELISPOT (at least 20 spots per million splenocytes was regarded to be a positive response) |  | 
RAHYNIVTF [SEQ ID NO: 1] |  | Positive, tumor regression | 
PalmKSS MHGDTPTLHEYMLDLQPETT [SEQ ID NO: 24] | Positive, ELISPOT (at least 20 spots per million splenocytes was regarded to be a positive response) |  | ELISPOT result Av spots/10^6 cells ([1]; splenocytes stimulated with MHGDTPTLHEYMLDLQPETT (SEQ ID NO: 9)): 284 spots/10^6 cells; ELISPOT result Av spots/10^6 cells [1, 3]: 79 spots/10^6 cells
QQLLRREVYDFAFRDLCIVYR [SEQ ID NO: 13, printed as E7 42-62 peptide] | Negative, ELISPOT |  | ELISPOT result Av spots/10^6 cells ([1]; splenocytes stimulated with FAFRDLCIV (SEQ ID NO: 29)): 6 spots/10^6 cells
GQAEPDRAHYNIVTF [SEQ ID NO: 5, HPV16 E7 43-57 peptide] |  | Positive, tumor regression | 
LLMGTLGIVCPICSQKP [SEQ ID NO: 10, HPV16 E7 82-98 peptide] | Positive, ELISPOT (at least 20 spots per million splenocytes was regarded to be a positive response) |  | ELISPOT result Av spots/10^6 cells [1, 4]: 1 spots/10^6 cells; ELISPOT result Av spots/10^6 cells [1, 5]: 27 spots/10^6 cells
EPDRAHYNIVTFCCKCDS [SEQ ID NO: 8, HPV16 E7 46-63 peptide] |  | Negative, tumor regression | 
